Reference: ChEMBL document CHEMBL3046402, “Synthesis of substituted benzo[d]thiazol-2-ylcarbamates as potential anticonvulsants” (2013)
Activity calls are given as the source filed them. The calls are words filed in the database; no cut-off is given here.

Tests used:
Mus musculus [1] = experiment: Anticonvulsant activity in Swiss albino Mus musculus (mouse) assessed as time duration of maximal electric shock-induced tonic extension at 35 mg/kg administered 30 min prior to maximal electric shock-challenge (reference value: 20.66 +/- 0.8433 secs); assay type: functional
Mus musculus [2] = experiment: Anticonvulsant activity against maximal electric shock-induced seizures in Swiss albino Mus musculus (mouse) assessed as time duration of tonic flexions at 35 mg/kg administered 30 min prior to maximal electric shock-challenge (reference value: 0 secs); assay type: functional
Mus musculus [3] = experiment: Anticonvulsant activity in Swiss albino Mus musculus (mouse) assessed as latency time of maximal electric shock-induced clonus onset at 35 mg/kg administered 30 min prior to maximal electric shock-challenge (reference value: 3.16 +/- 0.0833 min); assay type: functional
Mus musculus [4] = experiment: Anticonvulsant activity in Swiss albino Mus musculus (mouse) assessed protection against PTZ-induced clonic convulsion at 35 mg/kg administered 60 min prior to PTZ-challenge measured up to 30 min relative to control; assay type: functional
Mus musculus [5] = experiment: Anticonvulsant activity in Swiss albino Mus musculus (mouse) assessed as protection against maximal electric shock-induced death at 35 mg/kg administered 30 min prior to maximal electric shock-challenge; assay type: functional, organism-based; design: dose 35 mg/kg
Mus musculus [6] = experiment: Anticonvulsant activity in Swiss albino Mus musculus (mouse) assessed as time of onset of PTZ-induced clonic convulsion at 35 mg/kg administered 60 min prior to PTZ-challenge (reference value: 59.166 +/- 0.04216 Secs); assay type: functional
Mus musculus [7] = experiment: Anticonvulsant activity in Swiss albino Mus musculus (mouse) assessed as latency time of maximal electric shock-induced clonus onset at 20 mg/kg administered 30 min prior to maximal electric shock-challenge (reference value: 3.16 +/- 0.0833 min); assay type: functional
Mus musculus [8] = experiment: Anticonvulsant activity in Swiss albino Mus musculus (mouse) assessed as time duration of maximal electric shock-induced tonic extension at 20 mg/kg administered 30 min prior to maximal electric shock-challenge (reference value: 20.66 +/- 0.8433 secs); assay type: functional
Mus musculus [9] = experiment: Anticonvulsant activity in Swiss albino Mus musculus (mouse) assessed as protection against maximal electric shock-induced death at 20 mg/kg administered 30 min prior to maximal electric shock-challenge; assay type: functional, organism-based; design: dose 20 mg/kg
Mus musculus [10] = experiment: Anticonvulsant activity against maximal electric shock-induced seizures in Swiss albino Mus musculus (mouse) assessed as time duration of tonic flexions at 20 mg/kg administered 30 min prior to maximal electric shock-challenge (reference value: 0 secs); assay type: functional
Mus musculus [11] = experiment: Anticonvulsant activity in Swiss albino Mus musculus (mouse) assessed protection against PTZ-induced clonic convulsion at 20 mg/kg administered 60 min prior to PTZ-challenge measured up to 30 min relative to control; assay type: functional

Row | SMILES | Time (Mus musculus [1]) | Time (Mus musculus [2]) | Time (Mus musculus [3]) | Activity (Mus musculus [4]) | Activity (Mus musculus [5]) | Time (Mus musculus [6]) | Time (Mus musculus [7]) | Time (Mus musculus [8]) | Activity (Mus musculus [9]) | Time (Mus musculus [10]) | Activity (Mus musculus [11])
1 | O=C(Nc1nc2ccc([N+](=O)[O-])cc2s1)Oc1ccccc1 | 0 s | 6.32 s | 10.34 min | 100% | Active | – | – | – | – | – | –
2 | CCOC(=O)Nc1nc2ccccc2s1 | 0 s | 7.29 s | 11.18 min | 83.33% | Active | 86.66 s | – | – | – | – | –
3 | CCOC(=O)Nc1nc2ccc([N+](=O)[O-])cc2s1 | 0 s | 7.44 s | 8.37 min | 83.33% | Active | 80.5 s | – | – | – | – | –
4 | CCOC(=O)Nc1nc2ccc(C)cc2s1 | 0 s | 6.24 s | 12.55 min | 100% | Active | – | – | – | – | – | –
5 | CCOC(=O)Nc1nc2ccc(CC)cc2s1 | 0 s | 8.12 s | 10.415 min | 83.33% | Active | 83 s | – | – | – | – | –
6 | Cc1ccc2nc(NC(=O)Oc3ccccc3)sc2c1 | 0 s | 6.74 s | 13.28 min | 100% | Active | – | – | – | – | – | –
7 | CCOC(=O)Nc1nc2ccc(Cl)cc2s1 | 0 s | 9.27 s | 5.4 min | 66.66% | Active | 71.83 s | – | – | – | – | –
8 | CCOC(=O)Nc1nc2c(C)cccc2s1 | 0 s | 7.33 s | 10.36 min | 83.33% | Active | 85.166 s | – | – | – | – | –
9 | Cc1cccc2sc(NC(=O)Oc3ccccc3)nc12 | 0 s | 5.48 s | 9.58 min | 83.33% | Active | 75.166 s | – | – | – | – | –
10 | CCOC(=O)Nc1nc2ccc(OC)cc2s1 | 0 s | 6.4 s | 9.56 min | 100% | Active | – | – | – | – | – | –
11 | O=C1NC(=O)C(c2ccccc2)(c2ccccc2)N1 [PHENYTOIN] | – | – | – | – | – | – | 13.39 min | 0 s | Active | 5.34 s | 100%
12 | O=C(Nc1nc2ccccc2s1)Oc1ccccc1 | 0 s | 9.54 s | 11.47 min | 100% | Active | – | – | – | – | – | –
13 | CCc1ccc2nc(NC(=O)Oc3ccccc3)sc2c1 | 0 s | 5.2916 s | 7.59 min | 83.33% | Active | 86 s | – | – | – | – | –
14 | COc1ccc2nc(NC(=O)Oc3ccccc3)sc2c1 | 0 s | 11.08 s | 4.675 min | 66.66% | Active | 80.5 s | – | – | – | – | –
15 | O=C(Nc1nc2ccc(Cl)cc2s1)Oc1ccccc1 | 0 s | 8.34 s | 11.2 min | 66.66% | Active | 70.83 s | – | – | – | – | –
